# Source: patent publication US20090247634A1, “Methods for identifying modulators of eoxin formation” (priority 2006, published 2009)
# Values joined by “and” are separate entries in the source; they are usually repeats but may differ in a detail not shown here. Equal entries are not always repeated.
# Legend:
# [1] = tested on: eosinophils; assay: Inhibitor studies on formation of Eoxin C4 and LTC4 in eosinophils; assay type: cell-based, human; details: 2 min preincubation, A23187 (1 μM) and arachidonic acid, 5 min, 37° C.
# Procedure: Isolated eosinophils (5-10×10^6/sample) were resuspended in phosphate buffered saline (1 ml/sample) and preincubated for 2 minutes in 37° C. prior to stimulation with Eox A4 (10 μM), LTA4 (10 μM) or both for 5 minutes in 37° C. Alternatively, for inhibitor studies, eosinophils were preincubated for 2 minutes in 37° C. in presence of BW70C (1 μM) or MK886 (10 μM) prior to stimulation with ionophore A23187 (1 μM) and arachidonic acid (40 μM) for 5 minutes in 37° C. The reactions were terminated by addition of three volumes of methanol. Metabolites were detected and quantified utilising Waters 996 photodiode array spectrophotometer connected to Waters 1996 HPLC system.
# [2] = tested on: eosinophils; assay: Biosynthesis of 14,15-LTC4 and LTC4 in eosinophils (RP-HPLC); assay type: cell-based, human; details: ionophore A23187 (1 μM), 5 min, 37° C.; one line per donor 1-11
# Procedure: (§1) Human eosinophils contain abundant amounts of both 15-lipoxygenase and 5-lipoxygenase. […] The cells were incubated for five minutes at 37° C. and the amounts of 14,15-LTC4 and LTC4 were analyzed with RP-HPLC. […] Therefore, measurement of these metabolites is considered to reflect the total formation of 15-lipoxygenase derived cysteinyl-containing 14,15-leukotrienes and 5-lipoxygenase derived cysteinyl-containing leukotriens, respectively.
# (§2) Isolated eosinophils (1-20×10^6/sample) were resuspended in phosphate buffered saline (1 ml/sample) and pre-incubated for 2 minutes in 37° C. (in presence or absence of indomethacin, 1 μM) prior to stimulation with ionophore A23187 (1 μM)/arachidonic acid (1 or 10 μM)/A23187 plus arachidonic acid/PGD2 (1 μM)/LTC4 (1 μM)/IL-5 (10 ng/ml)/14,15-LTC4 (10 μM) or 14,15-LTD4 (10 μM) for indicated time periods at 37° C. The incubations were terminated by addition of one volume of methanol (for analysis by RP-HPLC). For subsequent analysis by enzyme immunoassay (EIA), reactions were terminated by rapid cool off, 0° C., before centrifugation at 1200×g, 5 min. Supernatants were transferred to cryo tubes and stored in −70° C. until analyzed.
# In order to get rid of cellular debris and proteins, centrifugation at 1200×g for 5 min. was performed. Supernatants were evaporated under reduced pressure and the residues resolved in methanol and transferred to a test tube. Samples were thereafter evaporated to dryness under a stream of nitrogen, and finally resuspended in 200 μl mobile phase (acetonitril:methanol:H20:acetic acid, 29:19:72:0.8, pH adjusted to 5.6 with NH3 for analysis of leukotrienes and 14,15-leukotrienes, and methanol:water:trifluoroacetic acid 70:30:0.007 for analysis of monohydroxy acids). The extracted samples were subjected to analysis in a reverse phase HPLC system as described. Briefly, samples were applied to a octadecyl reverse phase column (Chromabond ^18C, Macherey-Nagel, Duren, Germany) and elution rate was 1.2 ml/minute.
# [3] = tested on: Hodgkin cell line L1236; assay: Inhibition of EoxC4 formation in the human cell line L1236; assay type: cell-based
# Procedure: […] After pre-incubation with the test substance for 5 minutes, arachidonic acid (40 μM) was added. Incubation was stopped after 2 minutes with addition of one volume of methanol. Each test substance concentration was incubated in duplicate.
# Cells and cell debris were removed by centrifugation (2600 rpm, 6 min) from the samples. The supernatant was diluted with water and then transferred to a washed and equilibrated extraction cartridge, Oasis HLB 1 cc 10 mg (Waters, Sweden). The metabolites were eluted with methanol and diluted with water before injected to the HPLC system.
# RP-HPLC was performed on a Nova Pak C18 column (2.1×150 mm, Waters AB, Sweden). The initial mobile phase consists of 100% A (0.05% (8.7 mM) acetic acid, with pH adjusted to 5.6 with ammonium) at a flow rate at 0.4 mL/min. A linear gradient was started after five minutes to 36% B (60:40 acetonitrile:methanol) at 20 minutes. The mobile phase was than held isocratic at 64:36, A:B for another 20 minutes. Column effluent was monitored using diode array detection (PDA 996, Waters AB, Sweden) and UV spectra were acquired between 200-340 nm.
# […] Incubation and extraction was performed as described above.
# [4] = tested on: confluent bovine endothelium cells; assay: Endothelial cell barrier function (TEER), Example 6a; assay type: cell-based; details: for plasma leakage / change in TEER: 10^−7 and 10^−8 M; for potency relative to the most potent 5-lipoxygenase derived leukotrienes: FIG. 22
# Procedure: Bovine aorta endothelial cells (BAEC) and human umbilical vein endothelial cells (HUVEC) were isolated and cultured with calf serum or human serum. BAEC or HUVEC in the first to fifth passages were detached by brief (2 min) trypsin-EDTA treatment (0.25% trypsin/0.01% EDTA) and replated onto 3.0 μm pore size polycarbonate filters (Tissue Culture inserts, 10 mm; NUNC, Roskilde, Denmark) or, for the purpose of visual inspection, 0.2 μm pore size Anopore inorganic membrane (transparent when wet). In order to promote cellular differentiation and enhance attachment of EC, the filters were pretreated with 50 μl Biomatrix 1 (167 μg/ml) and air-dried. EC were seeded at a density of 2×10^5 cells per filter and incubated in culture medium at 37° C. in a humidified atmosphere of 5% CO2 in air. The EC were grown to confluent monolayers, as assessed by daily microscopic observation, in transparent 0.2 μm pore size filters and measurement of the electrical resistance across the monolayer. Under these experimental conditions maximal resistance is obtained at day 7 postseeding, at which day the EC monolayers were then used in the experiments.
# Rapid changes in endothelial cell (EC) barrier function in response to various arachidonic acid metabolites were analysed through continuous registration of transendothelial electrical resistance (TEER) with electrodes on each side of EC monolayer^18. For measurement of TEER, the filter insert with ECs was transferred to a resistance measurement chamber (Endohm-12, World Precision Instruments, Sarasota, Fla., USA) modified so as to assure exact positioning of the electrodes in relation to each other and to the filter insert daring repeated measurements. The chamber (low compartment) and the filter insert (upper compartment) were filled with 2 ml and 400 μl culture medium, respectively. All measurements were made at 37° C. with the equipment placed in a cell culture incubator. Direct readings of the electrical resistance were given by an ohmmeter (Evom, World Precision Instruments, Sarasota, Fla., US) connected to the electrodes of the resistance chamber. The electrical resistance of individual EC monolayers was obtained by subtracting the resistance of the corresponding naked filter coated with Biomatrix as measured prior to seeding of the EC. Thus, TEER values represent the resistance of the EC monolayer solely and depend on the development of tight junctions between adjoining endothelial cells.
# [5] = tested on: neutrophils; assay: Oxidative metabolism of neutrophils, lucigenin-enhanced chemiluminescence; assay type: cell-based, human
# Procedure: (§3) Neutrophil and eosinophil granulocytes were purified from peripheral whole blood using a Percoll gradient and the magnetic cell separation system (MACS).
# (§4) Granulocytes were primed for 30 minutes at 37° C. with either IL-5 (10.5 ng/mL) or GM-CSF (10.5 ng/mL) and subsequently stimulated with IL-5 (100 ng/mL), GM-CSF (100 ng/mL), LTB4 (10^−7M) or Eoxin (10^−8-10^−6M). Oxidative metabolism was measured by a lucigenin-enhanced chemiluminescence (CL) assay.
# [6] = Non-enzymatic metabolism during incubation at 37° C.; assay type: physicochemical; details: 60 min incubation at 37° C.
# Procedure: In order to analyze if eosinophils can metabolize 14,15-LTC4 to 14,15-LTD4 and 14,15-LTE4, eosinophils were incubated with synthetic 14,15-LTC4 or 14 (R)-cysteinyl-glycyl-15(S)-hydroxy-5,8,10,12(Z,Z,E,E)-eicosatetraenoic acid (14,15-LTD4) for 60 min at 37° C. The metabolites formed were analyzed with product ion scan at 497.2 m/z for 14,15-LTD4 and 440.2 m/z for 14,15-LTE4. The retention time and mass spectrum of a product formed (Metabolite 2) from 14,15-LTC4 were identical to synthetic 14,15-LTD4 (FIG. 30B), and a product formed (Metabolite 3) after incubation with 14,15-LTD4 had identical retention time and mass spectrum as synthetic 14 (R)-cysteinyl-15(S)-hydroxy-5,8,10,12(Z,Z,E,E)-eicosatetraenoic (14,15-LTE4) (FIG. 30C). […] (data not shown). Basically, the product ion mass spectra of 14,15-leukotrienes and corresponding 5-lipoxygenase derived cysteinyl-leukotrienes are almost identical. However, 14,15-leukotrienes form a fragment at 205 m/z, whereas the corresponding fragment in 5-lipoxygenase derived cysteinyl-leukotrienes is at 189 m/z (FIG. 31). These collision induced dissociation products are probably formed by a cleavage next to the carbon where the cysteinyl group is positioned, which is at carbon 14 for 14,15-leukotrienes and carbon 6 for leukotrienes.
# [7] = tested on: eosinophils; assay: Oxidative metabolism of eosinophils, lucigenin-enhanced chemiluminescence; assay type: cell-based, human
# Procedure: as §3, §4
# [8] = tested on: eosinophils; assay: Receptor mediated activation of 14,15-LTC4 biosynthesis in eosinophils (EIA); assay type: cell-based, human; details: LTC4 (1 μM), PGD2 (1 μM) or IL-5 (10 ng/ml), 5 min, 37° C.
# Procedure: A possible receptor mediated activation of 14,15-LTC4 formation was investigated by using the allergen induced mast cell mediators LTC4 and prostaglandin (PG) D2 as well as IL-5, which is a potent eosinophil activator. Isolated eosinophils (10×10^6/sample) were incubated for 5 min, at 37° C. with LTC4 (1 μM), PGD2 (1 μM) or IL-5 (10 ng/ml). Leukotriene C4, PGD2 and IL-5 all induced release of 14,15-LTC4 from eosinophils after 5 min of incubation (table 2).
# as §2
# Supernatants were diluted in EIA buffer and analyses were performed according to the manufacturer's protocol. The optical density (OD) from the EIA determinations was used to calculate % B/B0 according to the relationship: […]
# [9] = tested on: eosinophils; assay: Metabolism in eosinophils after 5 min of incubation
# Procedure: as §1
compound,measurement,setting,value
CC(/C=C/c1cccc(Oc2ccc(F)cc2)c1)N(O)C(N)=O (stereo not shown) [BW70C],LTC4 peak (LTC4 formation),[1]; BW70C 1 μM,totally abolished
CNc1ccc2oc(C[C@H]3O[C@@]4(CC[C@H]3C)O[C@H]([C@H](C)C(=O)c3ccc[nH]3)[C@H](C)C[C@H]4C)nc2c1C(=O)O [Compound A23187],"14,15-LTC4",[2],0 pmol/10^7
same,LTC4,[2],198 pmol/10^7 and 494 pmol/10^7 and 82 pmol/10^7 and 108 pmol/10^7 and 64 pmol/10^7 and 326 pmol/10^7 and 170 pmol/10^7 and 30 pmol/10^7 and 264 pmol/10^7 and 50 pmol/10^7 and 40 pmol/10^7
"CCCCCC#CCC#CCC#CCC#CCCCC(=O)O [ETYA, Eicosatetraynoic acid]",formation of EoxC4,"[3]; ETYA 10^−4-4 M, FIG. 26",completely blocked
same,formation of EoxD4,"[3]; ETYA 10^−4-4 M, FIG. 26",completely blocked
same,formation of EoxC4,[3]; ETYA 10^−5-5 M,decreased
same,formation of EoxD4,[3]; ETYA 10^−5-5 M,decreased
"CCCCC[C@H](O)[C@@H](/C=C/C=C/C=C\C/C=C\CCCC(=O)O)SC[C@H](N)C(=O)NCC(=O)O [EoxD4, 14 (R)-cysteinyl-glycyl-15 (S)-hydroxy-5,8,10,12 (Z,Z,E,E)-eicosatetraenoic acid]",plasma leakage / change in TEER,[4],induce significant plasma leakage
same,potency relative to the most potent 5-lipoxygenase derived leukotrienes,[4],about five to ten times less potent
same,radical production by GM-CSF primed neutrophils,"[5]; GM-CSF (10.5 ng/mL) primed, Eoxin 10^−8-10^−6M",induced the radical production by primed cells in a dose-dependent manner
same,responders,[5]; GM-CSF primed neutrophils,7-10 subjects of 13
same,non-enzymatic metabolism,[6],no non-enzymatic metabolism
"CCCCC[C@H](O)[C@@H](/C=C/C=C/C=C\C/C=C\CCCC(=O)O)SC[C@H](N)C(=O)O [EoxE4, 14 (R)-cysteinyl-15 (S)-hydroxy-5,8,10,12 (Z,Z,E,E)-eicosatetraenoic acid]",plasma leakage / change in TEER,[4],induce significant plasma leakage
same,potency relative to the most potent 5-lipoxygenase derived leukotrienes,[4],about five to ten times less potent
same,radical production by IL-5 primed eosinophils,"[7]; IL-5 (10.5 ng/mL) primed, Eoxin 10^−8-10^−6M",broad dose-related induction of the radical production
same,responders,[7]; IL-5 primed eosinophils,3 of 6 subjects
"CCCCC/C=C\C\C=C/C=C/C=C/[C@@H](SC[C@H](NC(=O)CC[C@H](N)C(=O)O)C(=O)NCC(=O)O)[C@@H](O)CCCC(=O)O [LTC4, leukotriene C4]","14,15-LTC4",[8],56.2 ± 42.5 pg/10^7 cell
same,metabolism in eosinophils,[9],almost no metabolism
CC(C)c1ccc2c(c1)c(SC(C)(C)C)c(CC(C)(C)C(=O)O)n2Cc1ccc(Cl)cc1 [MK886],EoxC4 synthesis,[1]; MK886 10 μM,blocked
"CCCCC[C@H](O)/C=C/[C@H]1C(=O)C[C@H](O)[C@@H]1C/C=C\CCCC(=O)O [PGD2, prostaglandin D2]","14,15-LTC4",[8],43.8 ± 16.9 pg/10^7 cell
"GM-CSF: the cytokine GM-CSF, a known activator of the oxidative metabolism",oxygen free radical production by non-primed neutrophils,"[5]; non-primed blood neutrophils, GM-CSF 100 ng/mL, LTB4 10^−7M, Eoxin 10^−8-10^−6M",induced the oxygen free radical production
"IL-5: IL-5, which is a potent eosinophil activator","14,15-LTC4",[8],131 ± 4.9 pg/10^7 cell
